This is an account of results in US20250179059A1 (The Regents of the University of California, priority 2021, published 2025).

Assay [1] has as its target T1, human BRD4 bromodomain II (Homo sapiens, UniProt O60885).
T1 construct: human BRD4 bromodomain II [based on Genbank NM_058243, residues 349-460]; host or cells: E. coli
As to the kind of experiment: Bromodomain binding assay (AlphaScreen), BRD4 BDII. Put shortly: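 E. coli-expressed N-terminal His6-tagged human BRD4 BDII (residues 349-460) or BDI (residues 44-170) was preincubated 30 min at room temperature with compound (10-point, 3-fold) in pH 7.5 HEPES buffer, 1% DMSO. Displacement of biotinylated tetra-acetylated H4 1-21 peptide was read by AlphaScreen, and IC50 came from curve fitting.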
On the technique in general: Bead proximity is the source of the signal in Alpha formats.

The subject of assay [2] is human SKM-1 acute myeloid leukemia cells. As to the kind of experiment: SKM-1 antiproliferation cell-based assay (ATPlite). The settings on record: Homo sapiens. Put shortly: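 Log-phase cells in RPMI 1640/15% FBS were seeded at 34722 cells/mL and exposed for 4 days to nine-concentration DMSO serial dilutions in triplicate. Viability was read as ATP luminescence (ATPlite 1step), and IC50 values came from variable-slope non-linear regression.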
(In general: In ATP-based viability assays light output follows the ATP content of the culture.)

[3] abbreviates: AlphaScreen assay, Table C2, read-out: BRD4 BDII IC50.
The mark [4] stands for this setting: SKM-1, 96 h, SKM-1 antiproliferation assay, 4 days, Table C2.
The mark [5] stands for this setting: BRD4 BDII AlphaScreen assay, read-out: BRD4 BD2 IC50.
Setting [6] is: SKM-1, SKM-1 antiproliferation assay.

Structures are written as SMILES. Read-outs that look alike come from different tables or passages of the source.

The IC50 is the point on the concentration scale where inhibition reaches its midpoint. Broadly, the GI50 is the concentration that inhibits growth by half. Read a high GI50 as less potent growth inhibition. Consider `Cn1cnn(-c2ccc(-c3cc(F)cc(-c4ccnc(N5CCNCC5)c4)c3O)cc2Cl)c1=O` [Example 499, 1-(3-chloro-5′-fluoro-2′-hydroxy-3′-(2-(piperazin-1-yl)pyridin-4-yl)-[1,1′-biphenyl]-4-yl)-^4-methyl-1H-1,2,4-triazol-5(4H)-one], for which the IC50 in assay [1] (setting [3]) was in the range of 1 to 10 nM. In addition, the GI50 in assay [2] (setting [4]) fell in the range of 30 to 300 nM.

For the compound `CN1CCN(c2ccc(-c3cccc(-c4ccnc(N5CCNCC5)c4)c3O)cc2F)C1=O` [Example 240, 1-(3-fluoro-2′-hydroxy-3′-(2-(piperazin-1-yl)pyridin-4-yl)-[1,1′-biphenyl]-4-yl)-3-methylimidazolidin-2-one], in assay [1] (setting [3]), the half-maximal inhibitory concentration (IC50) was in the range of 1 to 10 nM. Besides, the GI50 in assay [2] (setting [4]) lay in the range of 30 to 300 nM.

Turning to `CN1CCOC2CN(c3cc(-c4cc(F)cc(-c5ccc(-n6ccn(C)c6=O)c(Cl)c5)c4O)ccn3)CC21` (centres unmarked) [Example 649, 1-(3-chloro-5′-fluoro-2′-hydroxy-3′-(2-(4-methylhexahydropyrrolo[3,4-b][1,4]oxazin-6(2H)-yl)pyridin-4-yl)-[1,1′-biphenyl]-4-yl)-3-methyl-1H-imidazol-2(3H)-one], the IC50 in assay [1] (setting [3]) lay in the range of 1 to 10 nM. Also, in assay [2] (setting [4]), the GI50 lay within 30 to 300 nM.

For the compound `COc1ncc(-c2cc(F)cc(-c3ccc(-n4ccn(C)c4=O)c(Cl)c3)c2O)cc1N1CC[C@]2(CCN2C(C)C)C1` [Example 903], the IC50 in assay [1] (setting [5]) lay in the range of 0.01 to 1 nM. For the same compound, the GI50 in assay [2] (setting [6]) fell in the range of 0.3 to 30 nM.

As for `CC(C)N1CCN(c2cncc(-c3cc(F)cc(-c4ccc(-n5ccn(C)c5=O)c(Cl)c4)c3O)c2)CC1` [Example 663, 1-(3-chloro-5′-fluoro-2′-hydroxy-3′-(5-(4-isopropylpiperazin-1-yl)pyridin-3-yl)-[1,1′-biphenyl]-4-yl)-3-methyl-1H-imidazol-2(3H)-one], the IC50 in assay [1] (setting [3]) lay in the range of 0.01 to 1 nM. In assay [2] (setting [4]), this compound gave a GI50 of 0.3 to 30 nM.

As to `CC(=O)Nc1ncc(-c2cc(F)cc(-c3ccc(N4CCN(C)C4=O)c(Cl)c3)c2O)cc1N1CCNCC1` [Example 389, N-(5-(3′-chloro-5-fluoro-2-hydroxy-4′-(3-methyl-2-oxoimidazolidin-1-yl)-[1,1′-biphenyl]-3-yl)-3-(piperazin-1-yl)pyridin-2-yl)acetamide], the IC50 in assay [1] (setting [3]) lay in the range of 1 to 10 nM. The GI50 in assay [2] (setting [4]) lay within 30 to 300 nM.

For the compound `COc1ncc(-c2cc(F)cc(-c3ccc(-n4ccn(C)c4=O)c(C)c3)c2O)cc1N1CCN(C(C)(C)C)CC1` [Example 948, 1-(3′-(5-(4-(tert-butyl)piperazin-1-yl)-6-methoxypyridin-3-yl)-5′-fluoro-2′-hydroxy-3-methyl-[1,1′-biphenyl]-4-yl)-3-methyl-1,3-dihydro-2H-imidazol-2-one], the IC50 in assay [1] (setting [5]) was in the range of 1 to 10 nM. In assay [2] (setting [6]), this compound showed a GI50 of 0.3 to 30 nM.

For `C[C@@H]1CN(c2cc(-c3cc(F)cc(-c4ccc(-n5ccn(C)c5=O)c(Cl)c4)c3O)cc3c2nnn3C)CCN1` [Example 605, (R)-1-(3-chloro-5′-fluoro-2′-hydroxy-3′-(1-methyl-4-(3-methylpiperazin-1-yl)-1H-benzo[d][1,2,3]triazol-6-yl)-[1,1′-biphenyl]-4-yl)-3-methyl-1H-imidazol-2(3H)-one], in assay [1] (setting [3]), the IC50 was 0.01 to 1 nM. Also, the GI50 in assay [2] (setting [4]) lay within 0.3 to 30 nM.

As for `CN1CCN(c2ccc(-c3cccc(-c4ccnc(N5CC6(CNC6)C5)c4)c3O)cc2Cl)C1=O` [Example 323, 1-(3′-(2-(2,6-diazaspiro[3.3]heptan-2-yl)pyridin-4-yl)-3-chloro-2′-hydroxy-[1,1′-biphenyl]-4-yl)-3-methylimidazolidin-2-one], the IC50 in assay [1] (setting [3]) lay within 1 to 10 nM. This compound displayed a GI50 in assay [2] (setting [4]) of 30 to 300 nM.

Regarding `COc1cc(-c2cccc(-c3ccc(NC(C)=O)c(F)c3)c2O)cc(N2CCNCC2)n1` [Example 339, N-(3-fluoro-2′-hydroxy-3′-(2-methoxy-6-(piperazin-1-yl)pyridin-4-yl)-[1,1′-biphenyl]-4-yl)acetamide], the IC50 in assay [1] (setting [3]) was 10 to 100 nM. The GI50 in assay [2] (setting [4]) is 300 to 3000 nM.
